Reference: patent US8304426B2, “Polymorphic form of Granisetron base, methods for obtaining it and formulation containing it” (Inke, S.A., priority 2007, dated 2012)

Experiment: Stability of the polymorphic form: XRPD, IR and DSC characterization repeated one year later
Assay type: physicochemical
Conditions: solid from Example 11 (crystallised from 2-propanol)
Experimental: A PHILIPS X′ Pert diffractometer provided with a Cu tube and a secondary monochromator made of graphite (wavelength Kα Cu, 1.5419 Å) was used to record the X-ray powder diffractograms. Reception slot: 0.1 mm; Soller: 0.04 rad; antidiffusion slot and divergence slot: 1°.
2.61 g of Granisetron base is dissolved in 7.0 ml of 2-propanol, and is taken to reflux, when all the product is dissolved, the resultant dissolution is allowed to cool to 15° C. and the resultant solid is filtered and washed with 2-propanol. 2.47 g of Granisetron base is recovered (95%). Said Granisetron base is characterized as Form I with the following data of XRPD, IR and DSC: […]

CN1C2CCCC1CC(NC(=O)c1nn(C)c3ccccc13)C2 (stereo not drawn) [Form I of Granisetron base, endo-1-methyl-N-(9-methyl-9-azabicycle[3.3.1]non-3-yl)-1H-indazole-3-carboxamide]
Stability of polymorphic form (XRPD, IR and DSC characterization repeated, same result obtained): stable
